Measured values taken from article PMC8540617, “Dual Targeting of PTP1B and Aldose Reductase with Marine Drug Phosphoeleganin: A Promising Strategy for Treatment of Type 2 Diabetes” (Marine Drugs, 2021).

What was measured:
[1] = molecular target: T1, human recombinant PTP1B (1-302) (Homo sapiens, UniProt P18031); assay: PTP1B activity / inhibition assay (p-NPP hydrolysis); type: biochemical
T1 construct: The human recombinant PTP1B (1-302 aa) and LMW-PTP (full-length) were expressed as fusion proteins; polyhistidine (N); made in house; host or cells: E. coli BL21(DE3) pLysS
T1 sequence (P18031 1-302): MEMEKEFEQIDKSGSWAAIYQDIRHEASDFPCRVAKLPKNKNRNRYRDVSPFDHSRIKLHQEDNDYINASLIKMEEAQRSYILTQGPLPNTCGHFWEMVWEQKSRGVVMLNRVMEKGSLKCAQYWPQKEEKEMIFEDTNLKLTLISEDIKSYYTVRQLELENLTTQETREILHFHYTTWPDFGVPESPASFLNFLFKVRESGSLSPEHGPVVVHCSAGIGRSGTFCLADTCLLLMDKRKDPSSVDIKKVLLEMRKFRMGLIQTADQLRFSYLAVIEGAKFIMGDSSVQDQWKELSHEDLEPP
Procedure: PTP1B activity was determined as previously described. Briefly, each assay was started by adding an aliquot of human recombinant PTP1B (1-302) in the assay buffer (0.075 M β,β-dimethylglutarate pH 7.0, containing 1 mM EDTA, 0.1 mM DTT, and p-nitrophenylphosphate (p-NPP)). All reactions were performed at 37 °C in a final volume of 1 mL. After the incubation time, the reactions were stopped by adding 2 mL of 0.1 M KOH to the samples. The concentration of the released p-nitrophenol was determined by measuring the absorbance at 400 nm in a 1 cm pathlength cuvette. One unit of enzyme activity is the amount that catalyses the conversion of 1 μmol of substrate/min in the above assay conditions.
(§1) PE was dissolved in DMSO at a final concentration of 10 mM and added to the assay mixture containing 10 mU of purified AR (84 nM on the basis of a 34 KDa molecular weight) or 8 mU purified PTP1B (52 nM on the basis of a 36 KDa molecular weight). The reaction was started by the addition of the substrate. The DMSO concentration in the assays for AR determination was kept constant at 0.7 % (v/v) in order to avoid effects on AR activity. The inhibitory effect of PE was determined by measuring the reaction rates in the presence of a fixed substrate concentration (2.5 mM p-NPP and 0.8 mM L-idose for PTP1B and AR, respectively) and increasing inhibitor concentrations (at least 14-16 different concentrations). The IC50 (the inhibitor concentration able to decrease the enzymatic activity up to 50%) values were determined by nonlinear regression analysis using Prism GraphPad 6.0 (GraphPad Software, San Diego, CA, USA), fitting experimental data to the following equation: Vi/V0 = Max − Min/1 + x/IC50^slope + Min where Vi/V0 represents the relative activity calculated in presence of each inhibitor concentration; “Max” and “Min” represent the maximum and minimum value of the activity, respectively; “x” is the concentration of the inhibitor; and “slope” represents the slope of the curve in the transition zone.
(§2) In order to define the mechanism of action of PE, reaction rates were measured in assay mixtures containing different L-idose concentrations (between 0.8 and 6 mM) in the case of AR, and different p-NPP concentrations (between 0.5 and 25 mM) in the case of PTP1B, in the absence and in the presence of different PE concentrations. Data were analysed by Lineweaver–Burk plots. The apparent dissociation constants Ki’ (for the ESI complex) and Ki (for the EI complex) were determined from secondary plots of 1/^appVmax and ^appKM/^appVmax as a function of the inhibitor concentration, respectively.
Figure S3. Determination of IC50 value for PE. […] The amount of p-NP released was determined using a spectrophotometer, measuring the absorbance of samples at 400 nm, using a 1cm path length cuvette. […]

[2] = molecular target: T2, human recombinant AR (Homo sapiens, UniProt P15121); assay: AR activity / inhibition assay (NADPH oxidation, L-idose as substrate); type: biochemical
T2 construct: made in house; host or cells: E. coli BL21(DE3) pLysS
Procedure: AR activity was determined at 37 °C, as previously described, evaluating the decrease in absorbance at 340 nm linked to NADPH oxidation using a Biochrom Libra S60 spectrophotometer. The standard assay mixture contained 0.25 M sodium phosphate buffer pH 6.8, 0.18 mM NADPH, 2.4 M ammonium sulphate, 0.5 mM EDTA, and 4.7 mM D,L-glyceraldehyde. One unit of enzyme activity is the amount that catalyses the conversion of 1 μmol of substrate/min in the above assay conditions. For AR inhibition studies, L-idose (at the indicated concentrations) was used as substrate in the conditions described above.
as §1, §2

[3] = molecular target: T2, human recombinant AR; assay: Reversibility of AR inhibition by dialysis; type: biochemical
Procedure: (§3) The mixture was then extensively dialysed on Amicon ultrafiltration membrane (cut-off 3 KDa) against 10 mM sodium phosphate buffer, pH 7.0. After dialysis, the enzyme activity was again measured using 0.8 mM L-idose as substrate and compared to that of a mixture treated in the same conditions but in the absence of inhibitor. In order to evaluate the reversibility of the inhibitory action on PTP1B, 8 mU of PTP1B was incubated in the presence of a saturating concentration of PE (3 µM) and then incubated at 37 °C for 1 h. After this time, an aliquot of solution was withdrawn and extensively diluted in the assay buffer containing 2.5 mM of p-NPP. Residual activity of PTP1B was determined by calculating the amount of pNP released by measuring the absorbance of solution at 400 nm.

[4] = molecular target: T1, human recombinant PTP1B (1-302); assay: Reversibility of PTP1B inhibition, dilution assay; type: biochemical
Procedure: as §3
Figure S3. Determination of IC50 value for PE. An aliquot of PTP1B (8 mU) was incubated in the presence of increasing PE concentration in the assay buffer containing 2.5 mM pNPP. After 30 minutes, the reactions were stopped by adding 2 mL of 0.1 M KOH solution. The amount of p-NP released was determined using a spectrophotometer, measuring the absorbance of samples at 400 nm, using a 1cm path length cuvette. All tests were carried out in triplicate. Data obtained were normalized respect to control test and fitted using an opportune equation (see Material and method […]
Figure S4. Dilution assay. […]

[5] = test system: HepG2 cells; assay: Analysis of the insulin signalling pathway (Western blot of IR and Akt phosphorylation); type: cell-based; conditions: HepG2, PE 25 µM combined with insulin 10 nM, 30 minutes
Procedure: To evaluate whether PE is able to improve the insulin signalling pathway in vitro, we analysed the effect of the compound on HepG2 cell line. For this purpose, we treated HepG2 cells with PE (25 µM final concentration) for 30 minutes in the presence or absence of insulin (10 nM). After treatment, cells were lysed and cellular extracts were analysed to evaluate the phosphorylation status of insulin receptor (IR) and Akt, a kinase downstream IR (Figure 7).
Figure 7 Effect of PE on the insulin signalling pathway. Panel A: Western blot image; Panel B: quantitation of Western blot carried out using Kodak MI software. Data shown were normalized with respect to the control sample. All tests were carried out in triplicate. […]
In order to evaluate the effect of PE on the insulin signalling pathway, HepG2 cells were seeded in 35-mm culture dishes and, after 24 hours, were incubated for 30 minutes with starvation medium (DMEM supplemented with 2 mM glutamine, 100 U/mL penicillin, and 100 μg/mL streptomycin) containing 25 μM of PE and/or 10 nM insulin (Humalog, lispro insulin). […] Cellular extracts were boiled for 5 minutes, and then an aliquot (20 µg of protein) was analysed by SDS-PAGE and Western blot to evaluate both total and phosphorylated expression levels of Akt and IR. β-actin was used as a reference protein to normalise protein loading.

With CCCCCCCCCCCCCCC(OP(=O)(O)O)C(O)CCC(O)C(O)CCC(O)CCCCCCC(=O)NCC(=O)O (centres unmarked) [PE, phosphoeleganin] the IC50 ([1]; 2.5 mM p-NPP, pH 7.0, 37 °C, 8 mU PTP1B) was 1.3 ± 0.04 µM, the “Type of inhibition of PTP1B” value ([1]; Lineweaver–Burk analysis) was “pure non-competitive inhibitor” and the “K'i (ESI complex) for PTP1B” value ([1]; secondary plot of 1/appVmax vs PE concentration, p-NPP 0.5-25 mM) was 0.7 ± 0.1 µM. For the same compound, the Ki ([1]; secondary plot of appKM/appVmax vs PE concentration, p-NPP 0.5-25 mM, read-out: Ki (EI complex) for PTP1B) was 0.7 ± 0.1 µM, the IC50 ([2]; 0.8 mM L-idose, pH 6.8, 37 °C, 10 mU AR) was 28.7 ± 1.1 µM and the “Type of inhibition of AR” value ([2]; Lineweaver–Burk analysis) was “mixed inhibitor”. For the same compound, the “K'i (ESI complex) for AR” value ([2]; secondary plot of 1/appVmax vs PE concentration, L-idose 0.8-6 mM) was 36 ± 1 µM, the Ki ([2]; secondary plot of appKM/appVmax vs PE concentration, L-idose 0.8-6 mM, read-out: Ki (EI complex) for AR) was 47 ± 1 µM and the “Reversibility of AR inhibition” value [3] was “reversible inhibitor”. For the same compound, the “AR enzyme activity recovered after removal of inhibitor by extensive dialysis” value ([3]; 10 mU AR incubated 90 min at 0 °C with PE 3 mM, then dialysed, 0.8 mM L-idose) was 100%, the “Reversibility of PTP1B inhibition” value [4] was “reversible inhibitor” and the “PTP1B activity recovered after dilution” value ([4]; incubation with saturating PE (3 µM) at 37 °C, then dilution in buffer with 2.5 mM p-NPP) was “almost completely”. For the same compound, the Akt phosphorylation level [5] was “significant increase” and the IR phosphorylation level [5] was “significant increase”.
